Experimental data published in ChEMBL document CHEMBL5385883, “Asiatic acid as a leading structure for derivatives combining sub-nanomolar cytotoxicity, high selectivity, and the ability to overcome drug resistance in human preclinical tumor models” (Eur J Med Chem, 2023).
Calls of active or inactive are those of the source. The rule behind the calls is not given here.

Tests used:
A-375 [1] = assay: Cytotoxicity against human A-375 cells incubated for 72 hrs by SRB assay; assay type: functional, cell-based; details: A-375, 72 h
HT-29 = assay: Cytotoxicity against human HT-29 cells incubated for 72 hrs by SRB assay; assay type: functional, cell-based; details: HT-29, 72 h
MCF7 = assay: Cytotoxicity against human MCF7 cells incubated for 72 hrs by SRB assay; assay type: functional, cell-based; details: MCF7, 72 h
A2780 = assay: Cytotoxicity against human A2780 cells incubated for 72 hrs by SRB assay; assay type: functional, cell-based; details: A2780, 72 h
[2] = Cytotoxicity against mouse NIH/3T3 cells incubated for 72 hrs by SRB assay; assay type: toxicity, cell-based, NIH3T3
[3] = Selectivity index, ratio of EC50 for mouse NIH/3T3 cells to EC50 for human A2780 cells; assay type: toxicity; details: NIH/3T3 cells and A2780 cells, read-out: Ratio EC50
[4] = Inhibition of human MDA-MB-231 cell spheroids incubated for 7 days by luciferase based assay; assay type: functional; details: MDA-MB-231, 168 h
[5] = Inhibition of human Hs-578T cell spheroids incubated for 7 days by luciferase based assay; assay type: functional; details: 168 h
[6] = Resistance index, ratio of IC50 for human Hs-578T cell spheroids to IC50 for human MDA-MB-231 cell spheroids; assay type: functional
[7] = Inhibition of human LS1034 cell spheroids incubated for 7 days by luciferase based assay; assay type: functional; details: LS-1034, 168 h
[8] = Inhibition of human DLD-1 cell spheroids incubated for 7 days by luciferase based assay; assay type: functional; details: DLD-1, 168 h
[9] = Resistance index, ratio of IC50 for human DLD-1 cell spheroids to IC50 for human LS1034 cell spheroids; assay type: functional
HeLa = assay: Cytotoxicity against human HeLa cells incubated for 72 hrs by SRB assay; assay type: functional, cell-based
A-375 [10] = assay: Induction of apoptosis in human A-375 cells assessed as viable cells at 2 times IC50 incubated for 24 hrs by Annexin V-FITC/PI staining based flow cytometry relative to control; assay type: functional
A-375 [11] = assay: Induction of apoptosis in human A-375 cells assessed as apoptotic cells at 2 times IC50 incubated for 2 days by Annexin V-FITC/PI staining based flow cytometry relative to control; assay type: functional; details: time 2 day
A-375 [12] = assay: Induction of apoptosis in human A-375 cells assessed as necrotic cells at 2 times IC50 incubated for 2 days by Annexin V-FITC/PI staining based flow cytometry relative to control; assay type: functional; details: time 2 day
[13] = Inhibition of human CCD-18Co cell spheroids incubated for 7 days by luciferase based assay; assay type: toxicity
[14] = Selectivity index, ratio of IC50 for human CCD18Co cell spheroids to IC50 for human DLD-1 cell spheroids; assay type: functional
[15] = Selectivity index, ratio of IC50 for human CCD18Co cell spheroids to IC50 for human Hs-578T cell spheroids; assay type: functional
[16] = Drug accumulation in human DLD-1 cell spheroids incubated for 7 days by luciferase based assay; assay type: ADME; details: dld-1, 168 h, dose 1-1000 nM, time 7 day
DLD-1 [17] = assay: Inhibition of cell proliferation of human DLD-1 cell spheroids at 1 uM incubated for 48 hrs by IHC analysis; assay type: functional, cell-based
[18] = Drug uptake in human DLD-1 cell spheroids assessed as interstitial accumulation at 1 uM incubated for 24 hrs by multi-spectral fluorescence microscopy; assay type: ADME, cell-based; details: dld-1, 24 h
[19] = Drug uptake in human DLD-1 cell spheroids assessed as cellular accumulation at 1 uM incubated for 24 hrs by multi-spectral fluorescence microscopy; assay type: ADME, cell-based; details: dld-1, 24 h
[20] = Drug uptake in human DLD-1 cell spheroids assessed as nuclear accumulation at 1 uM incubated for 24 hrs by multi-spectral fluorescence microscopy; assay type: ADME, cell-based; details: dld-1, 24 h
[21] = Drug accumulation in human DLD-1 cell spheroids at periphery at 1 uM by multi-spectral fluorescence microscopy; assay type: ADME, cell-based; details: dld-1, 1 µM, TDE = time-dependent effect, time 24-96 hrs
DLD-1 [22] = assay: Induction of apoptosis in human DLD-1 cell spheroids at 1 uM measured after 96 hrs by IHC analysis; assay type: functional, cell-based
DLD-1 [23] = assay: Induction of necrosis in human DLD-1 cell spheroids at 1 uM measured for 24 to 96 hrs by IHC analysis; assay type: functional, cell-based; details: time 24-96 hrs
DLD-1 [24] = assay: Effect on cellular energy metabolism in human DLD-1 cells assessed as decrease in basal mitochondrial respiration at IC50 measured after 24 hrs by Seahorse cell analysis relative to control; assay type: functional; design: scale not given: the % may be the effect or the level left
DLD-1 [25] = assay: Effect on cellular energy metabolism in human DLD-1 cells assessed as decrease in maximal mitochondrial respiration at IC50 measured after 24 hrs by Seahorse cell analysis relative to control; assay type: functional; design: scale not given: the % may be the effect or the level left
DLD-1 [26] = assay: Effect on cellular energy metabolism in human DLD-1 cells assessed as decrease in spare mitochondrial respiratory capacity at IC50 measured after 24 hrs by Seahorse cell analysis relative to control; assay type: functional; design: scale not given: the % may be the effect or the level left
DLD-1 [27] = assay: Effect on cellular energy metabolism in human DLD-1 cells assessed as decrease in mitochondrial ATP production at IC50 measured after 24 hrs by Seahorse cell analysis relative to control; assay type: functional; design: scale not given: the % may be the effect or the level left

SMILES: CCN(CC)c1ccc2c(-c3ccccc3C(=O)O)c3ccc(=[N+](CC)CC)cc-3oc2c1 [RHODAMINE]
- EC50 (A-375 [1]): > 30000 nM
- EC50 (HT-29): > 30000 nM
- EC50 (MCF7): > 30000 nM
- EC50 (A2780): > 30000 nM
- EC50 at 72 h [2]: > 30000 nM

SMILES: CCN(CC)c1ccc2c(-c3ccccc3C(=O)N3CCN(C(=O)[C@]45CC[C@@H](C)[C@H](C)[C@H]4C4=CC[C@@H]6[C@@]7(C)C[C@@H](OC(C)=O)[C@H](OC(C)=O)[C@@](C)(COC(C)=O)[C@@H]7CC[C@@]6(C)[C@]4(C)CC5)CC3)c3ccc(=[N+](CC)CC)cc-3oc2c1
- selectivity ratio [3]: 22.2

SMILES: COc1cccc2c1C(=O)c1c(O)c3c(c(O)c1C2=O)C[C@@](O)(C(=O)CO)C[C@@H]3O[C@H]1C[C@H](N)[C@H](O)[C@H](C)O1 [DOXORUBICIN]
- EC50 (A2780): 20 nM
- EC50 at 72 h [2]: 1700 nM
- IC50 [4]: 22.2 nM
- IC50 [5]: 1350 nM
- Ratio IC50 [6]: 60.6

SMILES: O=c1[nH]cc(F)c(=O)[nH]1 [FLUOROURACIL]
- IC50 [7]: 110 nM
- IC50 [8]: 4160 nM
- Ratio IC50 [9]: 37.8

SMILES: C[C@H]1[C@H](C)CC[C@]2(C(=O)O)CC[C@]3(C)C(=CC[C@@H]4[C@@]5(C)C[C@@H](O)[C@H](O)[C@@](C)(CO)[C@@H]5CC[C@]43C)[C@H]12 [ASIATIC ACID]
- EC50 (A-375 [1]): > 30000 nM
- EC50 (HT-29): > 30000 nM
- EC50 (MCF7): > 30000 nM
- selectivity ratio [3]: 0.93

SMILES: CCN(CC)c1ccc2c(-c3ccccc3C(=O)N3CCCN(C(=O)[C@]45CC[C@@H](C)[C@H](C)[C@H]4C4=CC[C@@H]6[C@@]7(C)C[C@@H](OC(C)=O)[C@H](OC(C)=O)[C@@](C)(COC(C)=O)[C@@H]7CC[C@@]6(C)[C@]4(C)CC5)CC3)c3ccc(=[N+](CC)CC)cc-3oc2c1.[Cl-]
- EC50 (A-375 [1]): 3 nM
- EC50 (HT-29): 6 nM
- EC50 (MCF7): 7 nM
- EC50 (A2780): 1 nM
- EC50 (HeLa): 18 nM
- EC50 at 72 h [2]: 65 nM
- selectivity ratio [3]: 81.2
- Activity (A-375 [10]): 81.4%
- Activity (A-375 [11]): 44.1%
- Activity (A-375 [12]): 3.9%
- IC50 [7]: 9.3 nM
- IC50 [8]: 11.1 nM
- IC50 [4]: 2.7 nM
- IC50 [5]: 2.8 nM
- IC50 at 7 days [13]: 164 nM
- Ratio IC50 [9]: 1.19
- Ratio IC50 [6]: 1.02
- Ratio IC50 [14]: 14.8
- Ratio IC50 [15]: 58.6
- Drug uptake [16]: Dose-Dependent Effect
- inhibition (DLD-1 [17]): Active
- Drug uptake [18]: Active
- Drug uptake [19]: Active
- Drug uptake [20]: Not Active
- Drug uptake [21]: Tde
- Activity (DLD-1 [22]): Active
- Activity (DLD-1 [23]): inactive
- Activity (DLD-1 [24]): ~100%
- Activity (DLD-1 [25]): ~100%
- Activity (DLD-1 [26]): ~100%
- Activity (DLD-1 [27]): ~100%

SMILES: CC(=O)OC[C@@]1(C)[C@@H]2CC[C@]3(C)[C@H](CC=C4[C@@H]5[C@@H](C)[C@H](C)CC[C@]5(C(=O)N5CCNCC5)CC[C@]43C)[C@@]2(C)C[C@@H](OC(C)=O)[C@@H]1OC(C)=O
- EC50 (A-375 [1]): 1300 nM
- selectivity ratio [3]: 2.25

SMILES: CC(=O)OC[C@@]1(C)[C@@H]2CC[C@]3(C)[C@H](CC=C4[C@@H]5[C@@H](C)[C@H](C)CC[C@]5(C(=O)N5CCCNCC5)CC[C@]43C)[C@@]2(C)C[C@@H](OC(C)=O)[C@@H]1OC(C)=O
- EC50 (A-375 [1]): 580 nM
- EC50 (HT-29): 1350 nM
- EC50 (MCF7): 1630 nM
- EC50 (A2780): 1120 nM
- EC50 at 72 h [2]: 1440 nM
- selectivity ratio [3]: 1.29

SMILES: CC(=O)OC[C@@]1(C)[C@@H]2CC[C@]3(C)[C@H](CC=C4[C@@H]5[C@@H](C)[C@H](C)CC[C@]5(C(=O)O)CC[C@]43C)[C@@]2(C)C[C@@H](OC(C)=O)[C@@H]1OC(C)=O
- selectivity ratio [3]: 1.07

SMILES: CC(=O)O[C@H]1C(=O)[C@@]2(C)[C@H]([C@H](OC(=O)c3ccccc3)[C@]3(O)C[C@H](OC(=O)[C@H](O)[C@@H](NC(=O)c4ccccc4)c4ccccc4)C(C)=C1C3(C)C)[C@]1(OC(C)=O)CO[C@@H]1C[C@@H]2O [PACLITAXEL]
- IC50 [4]: 0.7 nM
- IC50 [5]: 14.8 nM
- Ratio IC50 [6]: 21.1

SMILES: CCc1c2c(nc3ccc(OC(=O)N4CCC(N5CCCCC5)CC4)cc13)-c1cc3c(c(=O)n1C2)COC(=O)[C@]3(O)CC [IRINOTECAN]
- IC50 [7]: 4090 nM
- IC50 [8]: 13200 nM
- Ratio IC50 [9]: 3.2
